Results taken from PubChem BioAssay AID2060494 (Molecular Pharmacology Branch, DTP, NCI, 2025).

System: 435261-313-R-J1-PDC complex spheroid viability
Experiment: Anticancer human tumor 435261-313-R-J1-PDC patient-derived colon adenocarcinoma cell line growth inhibition [GQUAD]
Conditions: for IC50: curve of first compound; for viability, T/C: stronger effect = lower value
Summary of the method: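 Multi-cell-type spheroids of tumor cells with HUVEC and mesenchymal stem cells, treated with drug combinations. Concentrations descend in half-log steps from near clinical Cmax, or from 10 microM where Cmax is unknown; viability read-out.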

[1] = second compound 0.0316 µM, first compound 0.0316 µM
[2] = second compound 0.0316 µM, first compound 0.316 µM
[3] = second compound 0.1 µM, first compound 0.0316 µM
[4] = second compound 0.1 µM, first compound 0.316 µM
[5] = second compound 0.316 µM, first compound 0.0316 µM
[6] = second compound 0.316 µM, first compound 0.316 µM
[7] = second compound 1 µM, first compound 0.0316 µM
[8] = second compound 1 µM, first compound 0.316 µM
[9] = second compound 3.16 µM, first compound 0.0316 µM
[10] = second compound 3.16 µM, first compound 0.316 µM
[11] = second compound 10 µM, first compound 0.0316 µM
[12] = second compound 10 µM, first compound 0.316 µM
[13] = second compound 0.0316 µM, first compound 0.000999 µM
[14] = second compound 0.0316 µM, first compound 0.00316 µM
[15] = second compound 0.0316 µM, first compound 0.00999 µM
[16] = second compound 0.0316 µM, first compound 0.0999 µM
[17] = second compound 0.1 µM, first compound 0.000999 µM
[18] = second compound 0.1 µM, first compound 0.00316 µM
[19] = second compound 0.1 µM, first compound 0.00999 µM
[20] = second compound 0.1 µM, first compound 0.0999 µM
[21] = second compound 0.316 µM, first compound 0.000999 µM
[22] = second compound 0.316 µM, first compound 0.00316 µM
[23] = second compound 0.316 µM, first compound 0.00999 µM
[24] = second compound 0.316 µM, first compound 0.0999 µM
[25] = second compound 1 µM, first compound 0.000999 µM
[26] = second compound 1 µM, first compound 0.00316 µM
[27] = second compound 1 µM, first compound 0.00999 µM
[28] = second compound 1 µM, first compound 0.0999 µM
[29] = second compound 3.16 µM, first compound 0.000999 µM
[30] = second compound 3.16 µM, first compound 0.00316 µM
[31] = second compound 3.16 µM, first compound 0.00999 µM
[32] = second compound 3.16 µM, first compound 0.0999 µM
[33] = second compound 10 µM, first compound 0.000999 µM
[34] = second compound 10 µM, first compound 0.00316 µM
[35] = second compound 10 µM, first compound 0.00999 µM
[36] = second compound 10 µM, first compound 0.0999 µM
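Further: spheroids exposed to the agents for seven days before readout.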
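Wherever viability, T/C is given: percent of vehicle control viability with DMSO wells as 100%.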

C=CC(=O)N1CCN(c2nc(=O)n(-c3c(C)ccnc3C(C)C)c3nc(-c4c(O)cccc4F)c(F)cc23)C(C)C1 (stereo unspecified) + CN(C)c1ccc(Nc2c3ccc(NC(=O)CCN4CCCC4)cc3nc3cc(NC(=O)CCN4CCCC4)ccc23)cc1
IC50 (second compound 0.0316 µM): > 10000 nM | IC50 (second compound 0.1 µM): > 10000 nM | IC50 (second compound 0.316 µM): > 10000 nM | IC50 (second compound 1 µM): > 10000 nM | IC50 (second compound 3.16 µM): > 10000 nM | IC50 (second compound 10 µM): < 31.6 nM | viability, T/C [1]: 98.5% | viability, T/C (second compound 0.0316 µM, first compound 0.1 µM): 146% | viability, T/C [2]: 119% | viability, T/C (second compound 0.0316 µM, first compound 1 µM): 97.6% | viability, T/C (second compound 0.0316 µM, first compound 3.16 µM): 100% | viability, T/C (second compound 0.0316 µM, first compound 10 µM): 105% | viability, T/C [3]: 111% | viability, T/C (second compound 0.1 µM, first compound 0.1 µM): 109% | viability, T/C [4]: 111% | viability, T/C (second compound 0.1 µM, first compound 1 µM): 138% | viability, T/C (second compound 0.1 µM, first compound 3.16 µM): 115% | viability, T/C (second compound 0.1 µM, first compound 10 µM): 173% | viability, T/C [5]: 159% | viability, T/C (second compound 0.316 µM, first compound 0.1 µM): 106% | viability, T/C [6]: 123% | viability, T/C (second compound 0.316 µM, first compound 1 µM): 120% | viability, T/C (second compound 0.316 µM, first compound 3.16 µM): 111% | viability, T/C (second compound 0.316 µM, first compound 10 µM): 103% | viability, T/C [7]: 122% | viability, T/C (second compound 1 µM, first compound 0.1 µM): 101% | viability, T/C [8]: 149% | viability, T/C (second compound 1 µM, first compound 1 µM): 99.8% | viability, T/C (second compound 1 µM, first compound 3.16 µM): 145% | viability, T/C (second compound 1 µM, first compound 10 µM): 109% | viability, T/C [9]: 69.4% | viability, T/C (second compound 3.16 µM, first compound 0.1 µM): 98.3% | viability, T/C [10]: 114% | viability, T/C (second compound 3.16 µM, first compound 1 µM): 113% | viability, T/C (second compound 3.16 µM, first compound 3.16 µM): 102% | viability, T/C (second compound 3.16 µM, first compound 10 µM): 87.1% | viability, T/C [11]: 30.8% | viability, T/C (second compound 10 µM, first compound 0.1 µM): 45.6% | viability, T/C [12]: 54% | viability, T/C (second compound 10 µM, first compound 1 µM): 71.5% | viability, T/C (second compound 10 µM, first compound 3.16 µM): 70.9% | viability, T/C (second compound 10 µM, first compound 10 µM): 30.2%

CC[C@@]1(O)C(=O)OCc2c1cc1n(c2=O)Cc2cc3c(CN(C)C)c(O)ccc3nc2-1 + CN(C)c1ccc(Nc2c3ccc(NC(=O)CCN4CCCC4)cc3nc3cc(NC(=O)CCN4CCCC4)ccc23)cc1
IC50 (second compound 0.0316 µM): > 316 nM | IC50 (second compound 0.1 µM): > 316 nM | IC50 (second compound 0.316 µM): > 316 nM | IC50 (second compound 1 µM): > 316 nM | IC50 (second compound 3.16 µM): 72.5 nM | IC50 (second compound 10 µM): < 0.999 nM | viability, T/C [13]: 110% | viability, T/C [14]: 96.6% | viability, T/C [15]: 116% | viability, T/C [1]: 87.2% | viability, T/C [16]: 67.5% | viability, T/C [2]: 88.7% | viability, T/C [17]: 119% | viability, T/C [18]: 111% | viability, T/C [19]: 101% | viability, T/C [3]: 84.6% | viability, T/C [20]: 76.1% | viability, T/C [4]: 77.2% | viability, T/C [21]: 108% | viability, T/C [22]: 99.6% | viability, T/C [23]: 87.5% | viability, T/C [5]: 64.2% | viability, T/C [24]: 73.7% | viability, T/C [6]: 74.2% | viability, T/C [25]: 88.4% | viability, T/C [26]: 99.3% | viability, T/C [27]: 87.8% | viability, T/C [7]: 81.5% | viability, T/C [28]: 82.3% | viability, T/C [8]: 84.1% | viability, T/C [29]: 75.2% | viability, T/C [30]: 62.8% | viability, T/C [31]: 78.6% | viability, T/C [9]: 63.4% | viability, T/C [32]: 45.3% | viability, T/C [10]: 44.3% | viability, T/C [33]: 39.9% | viability, T/C [34]: 40.5% | viability, T/C [35]: 33.6% | viability, T/C [11]: 36.5% | viability, T/C [36]: 29.8% | viability, T/C [12]: 22%

CCc1c2c(nc3ccc(O)cc13)-c1cc3c(c(=O)n1C2)COC(=O)[C@]3(O)CC + CN(C)c1ccc(Nc2c3ccc(NC(=O)CCN4CCCC4)cc3nc3cc(NC(=O)CCN4CCCC4)ccc23)cc1
IC50 (second compound 0.0316 µM): > 316 nM | IC50 (second compound 0.1 µM): 240 nM | IC50 (second compound 0.316 µM): 94.9 nM | IC50 (second compound 1 µM): 104 nM | IC50 (second compound 3.16 µM): 43.7 nM | IC50 (second compound 10 µM): < 0.999 nM | viability, T/C [13]: 111% | viability, T/C [14]: 103% | viability, T/C [15]: 73.4% | viability, T/C [1]: 69.2% | viability, T/C [16]: 65.1% | viability, T/C [2]: 48.6% | viability, T/C [17]: 86.2% | viability, T/C [18]: 91.2% | viability, T/C [19]: 72.3% | viability, T/C [3]: 74.5% | viability, T/C [20]: 72.4% | viability, T/C [4]: 42.3% | viability, T/C [21]: 76.4% | viability, T/C [22]: 77.1% | viability, T/C [23]: 66.7% | viability, T/C [5]: 78.8% | viability, T/C [24]: 48.9% | viability, T/C [6]: 45.1% | viability, T/C [25]: 62.2% | viability, T/C [26]: 81.2% | viability, T/C [27]: 65.2% | viability, T/C [7]: 70.9% | viability, T/C [28]: 50.4% | viability, T/C [8]: 39.3% | viability, T/C [29]: 50.2% | viability, T/C [30]: 57% | viability, T/C [31]: 56.8% | viability, T/C [9]: 56.2% | viability, T/C [32]: 37.1% | viability, T/C [10]: 22.2% | viability, T/C [33]: 34.9% | viability, T/C [34]: 30.8% | viability, T/C [35]: 29.8% | viability, T/C [11]: 27.1% | viability, T/C [36]: 18.6% | viability, T/C [12]: 13.6%
